In this test the target is T1, EBP (Homo sapiens, UniProt Q15125).
T1 construct: HEK293T cells were utilized as the source of EBP enzyme; endogenous in cells; host or cells: HEK293T
T1 sequence (Q15125 whole entry): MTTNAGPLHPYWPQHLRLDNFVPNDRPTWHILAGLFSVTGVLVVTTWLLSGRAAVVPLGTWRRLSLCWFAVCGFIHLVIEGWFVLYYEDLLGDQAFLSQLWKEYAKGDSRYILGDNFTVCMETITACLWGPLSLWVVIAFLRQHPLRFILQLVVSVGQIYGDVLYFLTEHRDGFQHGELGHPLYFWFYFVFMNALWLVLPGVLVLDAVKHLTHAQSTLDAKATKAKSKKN
The test is described as follows: EBP Functional Assay (EBP immunoaffinity LC-MS assay). The format is biochemical. The conditions noted are these: EBP enzyme from HEK293T cells; 30 min with inhibitor, then zymosterol-d5, 37° C., 4 h; percent conversion to dehydrolathosterol-d5 by LC-APCI MRM MS. How it is done:
The EBP immunoaffinity (IA) LC-MS assay measures the potency of small molecule inhibitors of EBP by quantifying their concentration-dependent changes in the enzyme's substrate and product using liquid chromatography atmospheric pressure chemical ionization multiple reaction monitoring mass spectrometry (LC-APCI MRM MS). HEK293T cells were utilized as the source of EBP enzyme. The enzyme was incubated with the small molecule inhibitors at variable concentrations for 30 min. Deuterated form of EBP substrate, zymosterol-d5 (Avanti Polar Lipids, Cat #700068P-1 mg), was then added and the plate was incubated at 37° C. for 4 h. Finally, the sterol isomers were extracted and injected to LC-APCI MRM MS. MRM transition used for the quantification for both zymosterol and […] (substrate and product of EBP enzymatic reaction, respectively) is 372.3-203.2, CE 30 and DP 80 in positive ion mode. Percent conversion of the zymosterol-d5 to dehydrolathosterol-d5 was used to derive IC50 curves. Tasin-1 (1′-[(4-Methoxyphenyl)sulfonyl]-4-methyl-1,4′-bipiperidine, CAS 792927-06-1) was used as the reference small molecule inhibitor.
Percent conversion versus the compound concentration data were fit to the following 4-parameter logistic model to generate IC50 curves: […]
`O=S(=O)(c1ccc(OC(F)F)cc1)N1CCC2(CC1)CN(C1CCOCC1)C2` [Example 32, 7-((4-(Difluoromethoxy)phenyl)sulfonyl)-2-(tetrahydro-2H-pyran-4-yl)-2,7-diazaspiro[3.5]nonane]: the IC50 (usually the concentration at which inhibition is half-maximal) lay within 250 to 4000 nM. In the case of `Cc1nc(C(F)(F)F)ccc1S(=O)(=O)N1CCC2(CC1)CN(C1CCOCC1)C2` [Example 33, 7-((2-Methyl-6-(trifluoromethyl)pyridin-3-yl)sulfonyl)-2-(tetrahydro-2H-pyran-4-yl)-2,7-diazaspiro[3.5]nonane] it was < 100 nM. Then `Cc1ccc(S(=O)(=O)N2CCC3(CC2)CN(CC2(O)CCOCC2)C3)c(C)c1` [Example 34, 4-((7-((2,4-Dimethylphenyl)sulfonyl)-2,7-diazaspiro[3.5]nonan-2-yl)methyl)tetrahydro-2H-pyran-4-ol], with < 100 nM; and `Cc1ccc(S(=O)(=O)N2CCC3(CC2)CN(CC2CCOCC2)C3)c(C)c1` [Example 35, 7-((2,4-Dimethylphenyl)sulfonyl)-2-((tetrahydro-2H-pyran-4-yl)methyl)-2,7-diazaspiro[3.5]nonane], with < 100 nM; and `Cc1ccc(S(=O)(=O)N2CCC3(CCN(C4CCOCC4)C3)CC2)c(Cl)c1` [Example 36, 8-((2-Chloro-4-methylphenyl)sulfonyl)-2-(tetrahydro-2H-pyran-4-yl)-2,8-diazaspiro[4.5]decane], with < 100 nM. `Cc1cc(S(=O)(=O)N2CCC3(CCN(C4CCOCC4)C3)CC2)n(C)n1` [Example 37]: the IC50 is 100 to 250 nM. As for `Cc1cc(C(F)(F)F)ncc1S(=O)(=O)N1CCC2(CCN(C3CCOCC3)C2)CC1` [Example 38], the IC50 is < 100 nM. Turning to `O=S(=O)(c1ccc(OC(F)F)cc1)N1CCC2(CCN(C3CCOCC3)C2)CC1` [Example 39], the IC50 is < 100 nM. In the case of `Cn1nc(C(F)(F)F)cc1S(=O)(=O)N1CCC2(CCN(C3CCOCC3)C2)CC1` [Example 40] it was < 100 nM; in that of `Cc1cc(OC(F)(F)F)ccc1S(=O)(=O)N1CCC2(CCN(C3CCOCC3)C2)CC1` [Example 41], < 100 nM. For `Cc1nc(C(F)(F)F)ccc1S(=O)(=O)N1CCC2(CCN(C3CCOCC3)C2)CC1` [Example 42], the IC50 was < 100 nM.

Take `COc1ccc(S(=O)(=O)N2CCC3(CCN(C4CCOCC4)C3)CC2)c(C)n1` [Example 43]: the IC50 was < 100 nM. Turning to `Cc1ccc(S(=O)(=O)N2CC3(CN(C4CCOCC4)C3)C2)c(C)c1` [Example 44, 2-((2,4-Dimethylphenyl)sulfonyl)-6-(tetrahydro-2H-pyran-4-yl)-2,6-diazaspiro[3.3]heptane], the IC50 was < 100 nM. Regarding `Cc1ccc(S(=O)(=O)N2CC3(CN(CC4(O)CCOCC4)C3)C2)c(C)c1` [Example 45, 4-((6-((2,4-Dimethylphenyl)sulfonyl)-2,6-diazaspiro[3.3]heptan-2-yl)methyl)tetrahydro-2H-pyran-4-ol], the IC50 lay in the range of 100 to 250 nM.

With `Cn1nc(C(F)(F)F)cc1S(=O)(=O)N1CC2(CN(C3CCOCC3)C2)C1` [Example 46, 2-((1-Methyl-3-(trifluoromethyl)-1H-pyrazol-5-yl)sulfonyl)-6-(tetrahydro-2H-pyran-4-yl)-2,6-diazaspiro[3.3]heptane], the half-inhibitory concentration (IC50) fell in the range of 100 to 250 nM. `COc1ccc(S(=O)(=O)N2CC3(CN(C4CCOCC4)C3)C2)c(C)n1` [Example 47] showed a 50% inhibitory concentration (IC50) of 100 to 250 nM. For the compound `Cc1cc(C(F)(F)F)ncc1S(=O)(=O)N1CC2(CN(C3CCOCC3)C2)C1` [Example 48], the IC50 fell in the range of 100 to 250 nM. In the case of `Cc1nn(C)c(S(=O)(=O)N2CC3(CN(C4CCOCC4)C3)C2)c1C(F)F` [Example 49] it was 100 to 250 nM; in that of `Cc1cc(OC(F)(F)F)ccc1S(=O)(=O)N1CC2(CN(C3CCOCC3)C2)C1` [Example 50], < 100 nM.

In the case of `Cc1nc(C(F)(F)F)ccc1S(=O)(=O)N1CC2(CN(C3CCOCC3)C2)C1` [Example 51, 2-((2-Methyl-6-(trifluoromethyl)pyridin-3-yl)sulfonyl)-6-(tetrahydro-2H-pyran-4-yl)-2,6-diazaspiro[3.3]heptane], the IC50 is < 100 nM. On to `Cc1ccc(S(=O)(=O)N2CC3(CCN(C4CCOCC4)C3)C2)c(C)c1` [Example 52, 2-((2,4-Dimethylphenyl)sulfonyl)-6-(tetrahydro-2H-pyran-4-yl)-2,6-diazaspiro[3.4]octane], for which the IC50 is < 100 nM. Turning to `Cc1cc(C)c(S(=O)(=O)N2CC3(CCN(C4CCOCC4)C3)C2)cn1` [Example 53], the IC50 was < 100 nM. `O=S(=O)(c1ccc(OC(F)F)cc1)N1CC2(CCN(C3CCOCC3)C2)C1` [Example 54] registered an IC50 of 100 to 250 nM. In the case of `Cn1nc(C(F)(F)F)cc1S(=O)(=O)N1CC2(CCN(C3CCOCC3)C2)C1` [Example 55] it was < 100 nM; in that of `Cc1nc(C(F)(F)F)ccc1S(=O)(=O)N1CC2(CCN(C3CCOCC3)C2)C1` [Example 56], < 100 nM. In turn, `Cc1cc(C(F)(F)F)ncc1S(=O)(=O)N1CC2(CCN(C3CCOCC3)C2)C1` [Example 57] yielded an IC50 of 100 to 250 nM. Consider `Cc1cc(OC(F)(F)F)ccc1S(=O)(=O)N1CC2(CCN(C3CCOCC3)C2)C1` [Example 58], for which the IC50 is < 100 nM. In the case of `Cn1nc(C2CC2)cc1S(=O)(=O)N1CC2(CCN(C3CCOCC3)C2)C1` [Example 59] it was 100 to 250 nM.

Turning to `Cn1nc(C(F)(F)F)cc1S(=O)(=O)N1CCC2(CN(C3CCOCC3)C2)C1` [Example 60, 6-((1-methyl-3-(Trifluoromethyl)-1H-pyrazol-5-yl)sulfonyl)-2-(tetrahydro-2H-pyran-4-yl)-2,6-diazaspiro[3.4]octane], the IC50 is < 100 nM. On to `O=S(=O)(c1ccc(OC(F)F)cc1)N1[C@@H]2CC[C@H]1CC1(C2)CN(C2CCOCC2)C1` [Example 61, (1′R,5′S)-8′-((4-(Difluoromethoxy)phenyl)sulfonyl)-1-(tetrahydro-2H-pyran-4-yl)-8′-azaspiro[azetidine-3,3′-bicyclo[3.2.1]octane]], for which the IC50 fell in the range of 100 to 250 nM. As to `Cc1ccc(S(=O)(=O)N2CC3(C[C@H]4CC[C@@H](C3)N4CC(C)(C)O)C2)c(C)c1` [Example 62, 1-((1′R,5′S)-1-((2,4-dimethylphenyl)sulfonyl)-8′-azaspiro[azetidine-3,3′-bicyclo[3.2.1]octan]-8′-yl)-2-methylpropan-2-ol], the IC50 is < 100 nM. Then `COC(C)(C)CN1CC2(C[C@H]3CC[C@@H](C2)N3S(=O)(=O)c2ccc(OC(F)F)cc2)C1` [Example 63, (1′R,5′S)-8′-((4-(Difluoromethoxy)phenyl)sulfonyl)-1-(2-methoxy-2-methylpropyl)-8′-azaspiro[azetidine-3,3′-bicyclo[3.2.1]octane]], with 100 to 250 nM; and `COC(C)(C)CN1[C@@H]2CC[C@H]1CC1(C2)CN(S(=O)(=O)c2ccc(OC(F)F)cc2)C1` [Example 64, (1′R,5′S)-1-((4-(Difluoromethoxy)phenyl)sulfonyl)-8′-(2-methoxy-2-methylpropyl)-8′-azaspiro[azetidine-3,3′-bicyclo[3.2.1]octane]], with 250 to 4000 nM; and `O=S(=O)(c1cc(C(F)(F)F)nn1CC1CC1)N1CC2(CN(C3CCOCC3)C2)C1` [Example 65, 2-((1-(cyclopropylmethyl)-3-(trifluoromethyl)-1H-pyrazol-5-yl)sulfonyl)-6-(tetrahydro-2H-pyran-4-yl)-2,6-diazaspiro[3.3]heptane], with 250 to 4000 nM.

The record behind these values is US20250171463A1 (BIOGEN MA INC., priority 2022, published 2025).
